The source made the active and inactive calls. The rule behind the calls is not given here.
Experiments:
[1] = test system: CWR22R; experiment: Inhibition of cell viability in ARV7-positive human 22Rv1 cells by Steady-Glo luciferase assay; type: functional, cell-based
[2] = test system: PC-3; experiment: Inhibition of cell viability in AR-independent human PC-3 cells by Steady-Glo luciferase assay; type: functional, cell-based
[3] = Drug uptake in C57BL6 mouse plasma at 25 mg/kg, po via gavage measured for 4 hrs by LC-MS/MS analysis; type: ADME, organism-based; conditions: in vivo
[4] = C0 in Sprague-Dawley rat at 1.8 mg/kg, iv measured for 24 hrs by LC-MS/MS analysis; type: ADME, organism-based; conditions: in vivo
[5] = Elimination rate constant in Sprague-Dawley rat at 1.8 mg/kg, iv measured for 24 hrs by LC-MS/MS analysis; type: ADME, organism-based; conditions: in vivo
[6] = Half life in Sprague-Dawley rat at 1.8 mg/kg, iv measured for 24 hrs by LC-MS/MS analysis; type: ADME, organism-based; conditions: in vivo
[7] = MRT (0 to t) in Sprague-Dawley rat at 1.8 mg/kg, iv measured for 24 hrs by LC-MS/MS analysis; type: ADME, organism-based; conditions: in vivo
[8] = MRT (0 to infinity) in Sprague-Dawley rat at 1.8 mg/kg, iv measured for 24 hrs by LC-MS/MS analysis; type: ADME, organism-based; conditions: in vivo
[9] = AUC (0 to t) in Sprague-Dawley rat at 1.8 mg/kg, iv measured for 24 hrs by LC-MS/MS analysis; type: ADME, organism-based; design: time 24 hrs, dose 1.8 mg/kg, route iv; conditions: in vivo
[10] = AUC (0 to infinity) in Sprague-Dawley rat at 1.8 mg/kg, iv measured for 24 hrs by LC-MS/MS analysis; type: ADME, organism-based; design: dose 1.8 mg/kg, time 24 hrs, route iv; conditions: in vivo
[11] = Clearance in Sprague-Dawley rat at 1.8 mg/kg, iv measured for 24 hrs by LC-MS/MS analysis; type: ADME, organism-based; conditions: in vivo
[12] = Volume of distribution at steady state in Sprague-Dawley rat at 1.8 mg/kg, iv measured for 24 hrs by LC-MS/MS analysis; type: ADME, organism-based; conditions: in vivo, read-out: Vdss
[13] = Elimination rate constant in Sprague-Dawley rat at 25 mg/kg, IG measured for 24 hrs by LC-MS/MS analysis; type: ADME, organism-based; conditions: in vivo, po
[14] = Half life in Sprague-Dawley rat at 25 mg/kg, IG measured for 24 hrs by LC-MS/MS analysis; type: ADME, organism-based; conditions: in vivo, po
[15] = Tmax in Sprague-Dawley rat at 25 mg/kg, IG measured for 24 hrs by LC-MS/MS analysis; type: ADME, organism-based; conditions: in vivo, po
[16] = Cmax in Sprague-Dawley rat at 25 mg/kg, IG measured for 24 hrs by LC-MS/MS analysis; type: ADME, organism-based; design: dose 25 mg/kg, time 24 hrs, route ig; conditions: in vivo, po
[17] = MRT (0 to t) in Sprague-Dawley rat at 25 mg/kg, IG measured for 24 hrs by LC-MS/MS analysis; type: ADME, organism-based; conditions: in vivo, po
[18] = MRT (0 to infinity) in Sprague-Dawley rat at 25 mg/kg, IG measured for 24 hrs by LC-MS/MS analysis; type: ADME, organism-based; conditions: in vivo, po
[19] = AUC (0 to t) in Sprague-Dawley rat at 25 mg/kg, IG measured for 24 hrs by LC-MS/MS analysis; type: ADME, organism-based; design: dose 25 mg/kg, time 24 hrs, route ig; conditions: in vivo, po
[20] = AUC (0 to infinity) in Sprague-Dawley rat at 25 mg/kg, IG measured for 24 hrs by LC-MS/MS analysis; type: ADME, organism-based; design: time 24 hrs, dose 25 mg/kg, route ig; conditions: in vivo, po
[21] = Oral bioavailability in Sprague-Dawley rat at 25 mg/kg measured for 24 hrs by LC-MS/MS analysis; type: ADME, organism-based; conditions: in vivo
[22] = biological target: T1, Androgen receptor (Homo sapiens) (UniProt P10275); experiment: Inhibition of androgen receptor transfected in human HEK293T cells incubated for 24 to 72 hrs by Western blot analysis; type: cell-based; conditions: dose 0.5-1 µM, time 24-72 hrs
T1 sequence (whole entry): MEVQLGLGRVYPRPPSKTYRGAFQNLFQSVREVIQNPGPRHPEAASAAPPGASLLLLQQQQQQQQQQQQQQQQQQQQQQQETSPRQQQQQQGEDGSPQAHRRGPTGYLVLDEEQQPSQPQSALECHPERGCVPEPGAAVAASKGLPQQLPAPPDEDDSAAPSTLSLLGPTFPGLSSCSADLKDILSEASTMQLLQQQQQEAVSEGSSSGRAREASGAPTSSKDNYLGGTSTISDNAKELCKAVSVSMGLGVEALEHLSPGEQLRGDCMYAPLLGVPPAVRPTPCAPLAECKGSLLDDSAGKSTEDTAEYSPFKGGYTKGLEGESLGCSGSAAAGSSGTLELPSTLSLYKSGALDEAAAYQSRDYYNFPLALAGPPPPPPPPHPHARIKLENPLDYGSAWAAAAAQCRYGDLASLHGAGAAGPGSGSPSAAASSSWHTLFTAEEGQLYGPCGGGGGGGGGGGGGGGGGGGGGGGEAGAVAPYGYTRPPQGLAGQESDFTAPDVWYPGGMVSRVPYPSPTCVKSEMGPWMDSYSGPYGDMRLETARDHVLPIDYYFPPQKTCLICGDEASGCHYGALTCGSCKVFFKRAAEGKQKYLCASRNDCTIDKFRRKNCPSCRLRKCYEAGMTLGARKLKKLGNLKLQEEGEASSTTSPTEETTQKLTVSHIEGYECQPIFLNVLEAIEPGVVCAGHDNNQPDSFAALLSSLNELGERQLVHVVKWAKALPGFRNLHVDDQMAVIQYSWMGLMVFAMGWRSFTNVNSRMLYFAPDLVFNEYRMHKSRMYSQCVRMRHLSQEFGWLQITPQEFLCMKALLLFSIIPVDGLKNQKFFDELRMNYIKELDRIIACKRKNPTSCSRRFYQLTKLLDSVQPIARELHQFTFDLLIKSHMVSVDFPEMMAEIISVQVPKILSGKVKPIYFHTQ

[23] = biological target: T1, Androgen receptor (Homo sapiens); experiment: Inhibition of androgen receptor transfected in human HEK293T cells at 0.5 to 1 uM by Western blot analysis; type: cell-based; conditions: dose 0.5-1 µM, time 24-72 hrs, TDE = time-dependent effect
[24] = test system: HEK-293T; experiment: Downregulation of AR-v1 expression transfected in human HEK293T cells at 0.5 to 1 uM incubated for 24 to 72 hrs by Western blot analysis; type: functional, cell-based; conditions: dose 0.5-1 µM, time 24-72 hrs
[25] = test system: LNCaP; experiment: Inhibition of cell viability in AR-dependent human LNCaP cells by Steady-Glo luciferase assay; type: functional, cell-based
[26] = test system: LNCaP C4-2B; experiment: Inhibition of cell viability in AR-dependent human LNCaP C4-2B cells by Steady-Glo luciferase assay; type: functional, cell-based
[27] = test system: DU-145; experiment: Inhibition of cell viability in AR-independent human DU-145 cells by Steady-Glo luciferase assay; type: functional, cell-based
[28] = Inhibition of cell viability in human adipose stromal cells by CCK8 assay; type: toxicity, cell-based
[29] = biological target: T1, Androgen receptor (Homo sapiens); experiment: Inhibition of androgen receptor in human 22Rv1 cells assessed as decrease in HGF mRNA level at 1 uM incubated for 36 hrs by RNA sequencing analysis; type: cell-based
[30] = test system: CWR22R; experiment: Antitumor activity against human 22Rv1 cells xenografted in SCID C.B17 mouse assessed as tumor growth inhibition by measuring tumor volume at 50 mg/kg/day, IG measured for 21 days by caliper method; type: functional, organism-based; conditions: time 21.0 day
[31] = test system: CWR22R; experiment: Antitumor activity against human 22Rv1 cells xenografted in SCID C.B17 mouse assessed as tumor growth inhibition by measuring tumor weight at 50 mg/kg/day, IG measured for 21 days by caliper method; type: functional, organism-based; conditions: time 21.0 day
[32] = Toxicity in SCID C.B17 mouse xenografted with human 22Rv1 cells assessed as body weight loss at 50 mg/kg/day, IG measured for 21 days; type: organism-based, CWR22R; conditions: in vivo, po, 504 h, time 21 day
[33] = Distribution coefficient, logD of compound by chromatography; type: physicochemical; conditions: octanol/water
[34] = Metabolic stability in mouse liver microsomes assessed as half life; type: ADME, Microsome
[35] = Metabolic stability in mouse liver microsomes assessed as intrinsic clearance measured per mg protein; type: ADME, Microsome; conditions: read-out: CLH

## O=c1cnc(Cc2ccccc2)nn1Cc1ccc(Cl)cc1Cl
[1]
  IC50: 0.18 µM
[2]
  IC50: 1.48 µM
[3]
  Drug uptake: Active
[4]
  C0 at 24 h: 12600 ng/mL
[5]
  k el at 24 h: 2.5e-05 s⁻¹
[6]
  half-life: 8.02 h
[7]
  MRT last at 24 h: 5.05 h
[8]
  MRT inf: 7.65 h
[9]
  AUC(0-t) at 24 h: 14300 ng·h/mL
[10]
  AUC(0-inf): 15700 ng·h/mL
[11]
  clearance: 2.02 mL/min/kg
[12]
  Vd: 0.87 L/kg
[13]
  k el at 24 h: 4.17e-05 s⁻¹
[14]
  half-life: 4.59 h
[15]
  Tmax: 4 h
[16]
  Cmax: 1910 ng/mL
[17]
  MRT last at 24 h: 8.4 h
[18]
  MRT inf: 9.27 h
[19]
  AUC(0-t) at 24 h: 26500 ng·h/mL
[20]
  AUC(0-inf): 27500 ng·h/mL
[21]
  bioavailability: 12.6%
[22]
  inhibition: Dose-Dependent Effect
[23]
  inhibition: Tde
[24]
  Activity: inactive
[25]
  IC50: 0.17 µM
[26]
  IC50: 0.32 µM
[27]
  IC50: 1.85 µM
[28]
  IC50: 3.33 µM
[29]
  inhibition: Active
[30]
  TGI: Active
[31]
  TGI: Active
[32]
  Activity: Non-Toxic

## O=c1cnc(-c2ccccc2)nn1-c1ccccc1
[1]
  IC50: 2.19 µM
[2]
  IC50: > 10 µM

## O=c1cnc(Cc2ccccc2)nn1Cc1ccc(Cl)c(Cl)c1
[1]
  IC50: 0.2 µM
[2]
  IC50: 2.14 µM
[3]
  Drug uptake: Not Active

## O=c1cnc(-c2ccccc2)nn1Cc1ccc(Cl)cc1
[1]
  IC50: 0.6 µM
[2]
  IC50: 10.9 µM
[3]
  Drug uptake: Not Active

## O=c1cnc(-c2ccccc2)nn1C1CCCC1
[1]
  IC50: 0.49 µM
[2]
  IC50: 10.1 µM
[33]
  chromatographic logD: 3.8
[34]
  half-life: 0.1 h
[35]
  microsomal CLint: 296 µL/min/mg

## COc1ccc(Cn2nc(-c3cccc(OC)c3)ncc2=O)cc1
[1]
  IC50: 3.12 µM
[2]
  IC50: > 10 µM

## CC(C)CCn1nc(-c2ccccc2)ncc1=O
[1]
  IC50: 0.64 µM
[2]
  IC50: 10.8 µM

## O=c1cnc(Cc2ccccc2)nn1Cc1ccccc1
[1]
  IC50: 0.74 µM
[2]
  IC50: 9.79 µM

## N#CCCCn1nc(-c2ccccc2)ncc1=O
[1]
  IC50: 3.03 µM
[2]
  IC50: 42.9 µM

## O=c1cnc(-c2cccc(Cl)c2)nn1Cc1cccc(Cl)c1
[1]
  IC50: 2.66 µM
[2]
  IC50: 11.4 µM

## O=c1cnc(-c2ccccc2)nn1Cc1ccc(Cl)nc1
[1]
  IC50: 0.09 µM
[2]
  IC50: 3.23 µM
[3]
  Drug uptake: Not Active

## O=c1cnc(-c2cccc(Br)c2)nn1Cc1cccc(Cl)c1
[1]
  IC50: 3.25 µM
[2]
  IC50: 11.8 µM

## O=c1cnc(Cc2ccccc2)nn1Cc1cccc(C(F)(F)F)c1
[1]
  IC50: 0.13 µM
[2]
  IC50: 2.52 µM
[3]
  Drug uptake: Not Active

## O=c1cnc(-c2ccccc2)nn1-c1ccc(Cl)cc1
[1]
  IC50: 1.4 µM
[2]
  IC50: 3.34 µM

## COc1cccc(-c2ncc(=O)n(Cc3ccc(Cl)cc3Cl)n2)c1
[1]
  IC50: 0.15 µM
[2]
  IC50: 0.43 µM

## O=c1cnc(Cc2ccccc2)nn1CC1CCCCC1
[1]
  IC50: 3.23 µM
[2]
  IC50: 2.94 µM

## O=c1cnc(Cc2ccccc2)nn1CC1CC1
[1]
  IC50: 0.39 µM
[2]
  IC50: 0.6 µM

## O=c1cnc(-c2ccccc2)nn1Cc1cccc(C(F)(F)F)c1
[1]
  IC50: 0.22 µM
[2]
  IC50: 5.28 µM
[3]
  Drug uptake: Not Active

## O=c1cnc(-c2ccccc2)nn1Cc1ccccc1Cl
[1]
  IC50: 0.27 µM
[2]
  IC50: 2.55 µM
[33]
  chromatographic logD: 4.3
[34]
  half-life: 0.167 h
[35]
  microsomal CLint: 181 µL/min/mg

## Cc1nc(Cn2nc(-c3ccccc3)ncc2=O)cs1
[1]
  IC50: 0.69 µM
[2]
  IC50: 4.37 µM
[3]
  Drug uptake: Not Active

## CC(C)n1nc(-c2ccccc2)ncc1=O
[1]
  IC50: 0.92 µM
[2]
  IC50: 32.5 µM

## COc1cccc(-c2ncc(=O)n(Cc3ccc(Cl)c(Cl)c3)n2)c1
[1]
  IC50: 3.31 µM
[2]
  IC50: > 10 µM

From ChEMBL document CHEMBL5335810, “1,3-Disubstituted-1,2,4-triazin-6-ones with potent activity against androgen receptor-dependent prostate cancer cells” (Bioorg Med Chem, 2024)
